System: Humane Glykogenphosphorylase a
Assay: Glycogen phosphorylase a activity test (reverse direction, release of inorganic phosphate from glucose-1-phosphate)
Assay type: biochemical
Settings: 10 µM test substance; in vitro; 40 min at room temperature; absorbance at 820 nm; duplicate determinations
Experimental: Glykogenphosphorylase a Aktivitätstest
Der Effekt von Verbindungen auf die Aktivität der aktiven Form der Glykogenphosphorylase (GPa) wurde in der umgekehrten Richtung, durch Verfolgen der Glykogensynthese aus Glukose-1-Phosphat an Hand der Bestimmung der Freisetzung von anorganischem Phosphat, gemessen. […] Prüfsubstanzen wurden als 10 mM Lösung in DMSO zubereitet und auf 50 µM mit Pufferlösung T verdünnt. Zu 10 µl dieser Lösung wurden 10 µl 37,5 mM Glukose, gelöst in Pufferlösung T und 5 mg/mL Glykogen, sowie 10 µl einer Lösung von humaner Glykogenphosphorylase a (10 µg Protein/ml) und 20 µl Glukose-1-Phosphat, 2,5 mM zugegeben. Der basale Wert der Glykogenphosphorylase a Aktivität in Abwesenheit von Prüfsubstanz wurde durch Zugabe von 10 µl Pufferlösung T (0,1 % DMSO) bestimmt. […] Zur Bestimmung der Hintergrundsabsorption wurde in einem separaten Ansatz die Stop-Lösung unmittelbar nach Zugabe der Glukose-1-Phosphatlösung zugegeben. Dieser Test wurde mit einer Konzentrationen von 10 µM der Prüfsubstanz durchgeführt, um die jeweilige Hemmung der Glykogenphosphorylase a in vitro durch die Prüfsubstanz zu bestimmen. Tabelle 2: Biologische Aktivität

| Compound | % Inhibition bei 10 µM [%] |
| --- | --- |
| COC(=O)C=Cc1cc(C(=O)O)ccc1NC(=O)NC(=O)c1cc(F)c(F)cc1Cl [compound 12, 4-[3-(2-Chloro-4,5-difluorobenzoyl)-ureido]-3-(2-methoxycarbonyl-vinyl)-benzoesäure] | 104 |
| O=C(O)/C=C/c1ccccc1NC(=O)NC(=O)c1cc(F)c(F)cc1Cl [compound 2, 3-{2-[3-(2-Chloro-4,5-difluorobenzoyl)-ureido]-phenyl}-acrylsäure] | 101 |
